Source: PubChem BioAssay (NCI)
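Growth conditions: 96-well plates. Treatment: test compound, 48 hours, 5 concentrations. Analysis: linear interpolation between bracketing concentrations; unreached endpoints set to highest concentration. Definition used: TGI = concentration required for complete inhibition of growth.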

What was measured:
Assay in all cases: NCI-60 cell line screen, 48 h
[1] = tested on: HOP-62 NSCLC
[2] = tested on: EKVX NSCLC
[3] = tested on: SK-OV-3 ovarian
[4] = tested on: 786-0 renal
[5] = tested on: SF-268 CNS
[6] = tested on: MDA-N
[7] = tested on: U251 CNS
[8] = tested on: M14 melanoma
[9] = tested on: SK-MEL-28 melanoma
[10] = tested on: UACC-62 melanoma
[11] = tested on: RXF 393 renal
[12] = tested on: CAKI-1 renal
[13] = tested on: HT29 colon
[14] = tested on: COLO 205 colon
[15] = tested on: MDA-MB-231 breast
[16] = tested on: PC-3 prostate
[17] = tested on: TK-10 renal
[18] = tested on: MCF7 breast
[19] = tested on: NCI-H460 lung
[20] = tested on: MALME-3M melanoma
[21] = tested on: OVCAR-8 ovarian
[22] = tested on: SF-295 CNS
[23] = tested on: BT-549 breast
[24] = tested on: HS 578T breast
[25] = tested on: OVCAR-5 ovarian
[26] = tested on: HOP-92 NSCLC
[27] = tested on: CCRF-CEM leukemia
[28] = tested on: HCT-15 colon
[29] = tested on: OVCAR-3 ovarian
[30] = tested on: K-562 leukemia
[31] = tested on: ACHN renal
[32] = tested on: NCI-H226 lung
[33] = tested on: OVCAR-4 ovarian
[34] = tested on: MDA-MB-435
[35] = tested on: T-47D breast
[36] = tested on: SK-MEL-5 melanoma
[37] = tested on: LOX IMVI melanoma
[38] = tested on: NCI/ADR-RES ovarian
[39] = tested on: A549 NSCLC
[40] = tested on: NCI-H23 lung
[41] = tested on: HCT-116 colon
[42] = tested on: KM12 colon
[43] = tested on: SNB-19 CNS
[44] = tested on: SNB-75 CNS
[45] = tested on: HCC-2998 colon
[46] = tested on: IGROV1 ovarian
[47] = tested on: DU-145 prostate
[48] = tested on: SN12C renal
[49] = tested on: UO-31 renal
[50] = tested on: UACC-257 melanoma
[51] = tested on: SW-620 colon
[52] = tested on: SF-539 CNS
[53] = tested on: MOLT-4 leukemia
[54] = tested on: NCI-H522 lung
[55] = tested on: SK-MEL-2 melanoma
[56] = tested on: RPMI-8226 leukemia
[57] = tested on: HL-60(TB) leukemia
[58] = tested on: A498 renal

With COc1cc2c(cc1OC)CN1CCCc3cc(OC)c(OC)cc3C1C2 (stereo unspecified) the TGI [1] was over 100 µM, the TGI [2] was over 100 µM and the TGI [3] was over 100 µM. For the same compound, the TGI [4] was over 100 µM, the TGI [5] was over 100 µM and the TGI [6] was 42.4 µM. For the same compound, the TGI [7] was over 100 µM, the TGI [8] was over 100 µM and the TGI [9] was over 100 µM. It also gave a TGI [10] of over 100 µM, a TGI [11] of 94.4 µM and a TGI [12] of over 100 µM. The TGI [13] was 61.7 µM, the TGI [14] was over 100 µM and the TGI [15] was over 100 µM. The TGI [16] was over 100 µM, the TGI [17] was over 100 µM and the TGI [18] was 95.2 µM. It also gave a TGI [19] of over 100 µM, a TGI [20] of over 100 µM and a TGI [21] of over 100 µM. For the same compound, the TGI [22] was over 100 µM, the TGI [23] was over 100 µM and the TGI [24] was over 100 µM. It also gave a TGI [25] of over 100 µM, a TGI [26] of over 100 µM and a TGI [27] of over 100 µM. It also gave a TGI [28] of over 100 µM, a TGI [29] of over 100 µM and a TGI [30] of over 100 µM. It also gave a TGI [31] of over 100 µM, a TGI [32] of 96.1 µM and a TGI [33] of over 100 µM. The TGI [34] was 47.5 µM, the TGI [35] was over 100 µM and the TGI [36] was over 100 µM. It also gave a TGI [37] of over 100 µM, a TGI [38] of over 100 µM and a TGI [39] of over 100 µM. The TGI [40] was over 100 µM, the TGI [41] was over 100 µM and the TGI [42] was over 100 µM. For the same compound, the TGI [43] was over 100 µM, the TGI [44] was 52 µM and the TGI [45] was over 100 µM. It also gave a TGI [46] of over 100 µM, a TGI [47] of over 100 µM and a TGI [48] of over 100 µM. The TGI [49] was over 100 µM, the TGI [50] was over 100 µM and the TGI [51] was over 100 µM. For the same compound, the TGI [52] was 50.1 µM, the TGI [53] was over 100 µM and the TGI [54] was over 100 µM.
In the case of CC(C)(C)OC(=O)NCCC(=O)NC1(c2cc3ccccc3s2)CCCCC1, the TGI [1] is reported as 35.3 µM, the TGI [2] is reported as 50.6 µM and the TGI [3] is reported as 60.1 µM. The TGI [4] was 35.7 µM, the TGI [6] was 34.2 µM and the TGI [7] was 37.7 µM. For the same compound, the TGI [55] was 44.9 µM, the TGI [8] was 34.2 µM and the TGI [9] was 35 µM. It also gave a TGI [10] of 49.1 µM, a TGI [11] of 26.2 µM and a TGI [12] of 48.6 µM. For the same compound, the TGI [13] was 29.7 µM, the TGI [14] was 32.9 µM and the TGI [15] was 38.4 µM. The TGI [56] was 20.5 µM, the TGI [16] was 37 µM and the TGI [17] was 55.4 µM. It also gave a TGI [18] of 41 µM, a TGI [19] of 34.3 µM and a TGI [20] of 37.5 µM. It also gave a TGI [21] of 35.8 µM, a TGI [22] of 36.5 µM and a TGI [23] of 32.5 µM. It also gave a TGI [24] of 48.8 µM, a TGI [25] of 39.9 µM and a TGI [26] of 33.7 µM. For the same compound, the TGI [57] was 35.1 µM, the TGI [27] was 27.5 µM and the TGI [28] was 30.6 µM. The TGI [29] was 33.2 µM, the TGI [30] was 28.9 µM and the TGI [31] was 61.4 µM. The TGI [32] was 42.4 µM, the TGI [33] was 29.1 µM and the TGI [34] was 33.1 µM. The TGI [35] was 33.3 µM, the TGI [36] was 25.9 µM and the TGI [37] was 36.5 µM. For the same compound, the TGI [38] was 41.6 µM, the TGI [39] was 38.6 µM and the TGI [40] was 31.4 µM. The TGI [41] was 27 µM, the TGI [42] was 33.5 µM and the TGI [43] was 37.1 µM. The TGI [44] was 38.7 µM, the TGI [45] was 47.5 µM and the TGI [46] was 36.5 µM. For the same compound, the TGI [47] was 33.6 µM, the TGI [48] was 34.3 µM and the TGI [49] was 30.5 µM. It also gave a TGI [50] of 39 µM, a TGI [51] of 41.1 µM and a TGI [52] of 29.2 µM. For the same compound, the TGI [53] was 28.5 µM, the TGI [58] was 45.4 µM and the TGI [54] was 26.2 µM.
